Reference: publication PMC6081437, “The potency of the broad spectrum bacteriocin, bactofencin A, against staphylococci is highly dependent on primary structure, N-terminal charge and disulphide formation” (Scientific Reports, 2018)
Bridge positions count the residues as written; N and C are the ends. Square brackets hold non-standard residues; d marks the D form. Ends that are not written are not given here. Peptide text beside a SMILES is read from it.

Tested on: S. aureus DPC5246
Format: cell-based, Staphylococcus aureus
Conditions: for Activity (Minimum Inhibitory Concentration, MIC): DPC5246, pH 6.8; for fold reduction in activity compared with bactofencin A (wild type): S. aureus DPC5246, agar well diffusion MIC
Method: Peptides were resuspended at 1000 µM in 50 mM sodium phosphate buffer pH 6.8 and checked for purity by MALDI-TOF-MS. Peptides were serially diluted 1 in 4 to give a dilution series of 250, 62.50, 15.63, 3.91, 0.98 and 0.24 µM and assayed by the agar well diffusion assay described by Ryan et al.[19]. Briefly, 50 µl aliquots of each peptide concentration were plated on a S. aureus DPC5246 indicator plate and the plate incubated at 37 °C. Peptide activity (Minimum Inhibitory Concentration (MIC)) was taken as the lowest concentration of peptide to give a zone of inhibition. All assays were performed in triplicate. The dilution series values were rounded to the nearest whole number to give 1000, 250, 63, 16, 4, 1 and 0.25 µM and data is colour coded for ease of interpretation.

Compound | Activity (Minimum Inhibitory Concentration, MIC) [µM] | fold reduction in activity compared with bactofencin A (wild type) [fold]
CSCC[C@@H]1NC(=O)[C@H](C)NC(=O)[C@H]([C@@H](C)O)NC(=O)[C@@H]2CCCN2C(=O)[C@H](CCSC)NC(=O)CNC(=O)[C@H](CC(N)=O)NC(=O)[C@H](CC(N)=O)NC(=O)[C@H](Cc2ccc(O)cc2)NC(=O)[C@H](C(C)C)NC(=O)[C@H](CCCNC(=N)N)NC(=O)[C@@H](NC(=O)[C@H](CCCNC(=N)N)NC(=O)[C@H](Cc2c[nH]cn2)NC(=O)[C@H](CCCCN)NC(=O)[C@H](CCCCN)NC(=O)[C@H](CCCNC(=N)N)NC(=O)[C@@H](N)CCCCN)CSSC[C@@H](C(=O)O)NC(=O)[C@H](Cc2c[nH]c3ccccc23)NC(=O)[C@H](CCCNC(=N)N)NC(=O)[C@H](Cc2ccc(O)cc2)NC1=O [G17A] (H-KRKKHRCRVYNNGMPTAMYRWC-OH; disulfide 7-22) | 4 | –
CSCC[C@@H]1NC(=O)CNC(=O)[C@H]([C@@H](C)O)NC(=O)[C@@H]2CCCN2C(=O)[C@H](CCSC)NC(=O)[C@H](C)NC(=O)[C@H](CC(N)=O)NC(=O)[C@H](CC(N)=O)NC(=O)[C@H](Cc2ccc(O)cc2)NC(=O)[C@H](C(C)C)NC(=O)[C@H](CCCNC(=N)N)NC(=O)[C@@H](NC(=O)[C@H](CCCNC(=N)N)NC(=O)[C@H](Cc2c[nH]cn2)NC(=O)[C@H](CCCCN)NC(=O)[C@H](CCCCN)NC(=O)[C@H](CCCNC(=N)N)NC(=O)[C@@H](N)CCCCN)CSSC[C@@H](C(=O)O)NC(=O)[C@H](Cc2c[nH]c3ccccc23)NC(=O)[C@H](CCCNC(=N)N)NC(=O)[C@H](Cc2ccc(O)cc2)NC1=O [G13A] (H-KRKKHRCRVYNNAMPTGMYRWC-OH; disulfide 7-22) | 16 | –
CSCC[C@@H]1NC(=O)CNC(=O)[C@H]([C@@H](C)O)NC(=O)[C@@H]2CCCN2C(=O)[C@H](CCSC)NC(=O)CNC(=O)[C@H](CC(N)=O)NC(=O)[C@H](CC(N)=O)NC(=O)[C@H](Cc2ccc(O)cc2)NC(=O)[C@H](C(C)C)NC(=O)[C@H](CCCNC(=N)N)NC(=O)[C@@H](NC(=O)[C@H](CCCNC(=N)N)NC(=O)[C@@H](N)Cc2c[nH]cn2)CSSC[C@@H](C(=O)O)NC(=O)[C@H](Cc2c[nH]c3ccccc23)NC(=O)[C@H](CCCNC(=N)N)NC(=O)[C@H](Cc2ccc(O)cc2)NC1=O [H5-C22] (H-HRCRVYNNGMPTGMYRWC-OH; disulfide 3-18; N-terminus assumed) | 16 | –
KRKKHRARVYNNGMPTGMYRWA [C7A-C22A] | 16 | 16
CSCC[C@@H]1NC(=O)CNC(=O)[C@H]([C@@H](C)O)NC(=O)[C@@H]2CCCN2C(=O)[C@H](CCSC)NC(=O)CNC(=O)[C@H](CC(N)=O)NC(=O)[C@H](CC(N)=O)NC(=O)[C@H](Cc2ccc(O)cc2)NC(=O)[C@H](C(C)C)NC(=O)[C@H](CCCNC(=N)N)NC(=O)[C@@H](NC(=O)[C@H](CCCNC(=N)N)NC(=O)[C@H](Cc2c[nH]cn2)NC(=O)[C@H](CCCCN)NC(=O)[C@H](CCCCN)NC(=O)[C@H](CCCNC(=N)N)NC(=O)[C@@H](N)CCCCN)CSSC[C@@H](C(=O)O)NC(=O)[C@H](Cc2c[nH]c3ccccc23)NC(=O)[C@@H](CCCNC(=N)N)NC(=O)[C@H](Cc2ccc(O)cc2)NC1=O [R20Rd] (H-KRKKHRCRVYNNGMPTGMY[dR]WC-OH; disulfide 7-22; N-terminus assumed) | 4 | –
CSCC[C@@H]1NC(=O)CNC(=O)[C@H]([C@@H](C)O)NC(=O)[C@@H]2CCCN2C(=O)[C@H](CCSC)NC(=O)CNC(=O)[C@H](CC(N)=O)NC(=O)[C@H](CC(N)=O)NC(=O)[C@H](Cc2ccc(O)cc2)NC(=O)[C@H](C(C)C)NC(=O)[C@H](CCCNC(=N)N)NC(=O)[C@@H](NC(=O)[C@@H](N)CCCNC(=N)N)CSSC[C@@H](C(=O)O)NC(=O)[C@H](Cc2c[nH]c3ccccc23)NC(=O)[C@H](CCCNC(=N)N)NC(=O)[C@H](Cc2ccc(O)cc2)NC1=O [R6-C22] (H-RCRVYNNGMPTGMYRWC-OH; disulfide 2-17; N-terminus assumed) | 63 | –
CSCC[C@@H]1NC(=O)CNC(=O)[C@H]([C@@H](C)O)NC(=O)[C@@H]2CCCN2C(=O)[C@@H](CCSC)NC(=O)CNC(=O)[C@H](CC(N)=O)NC(=O)[C@H](CC(N)=O)NC(=O)[C@H](Cc2ccc(O)cc2)NC(=O)[C@H](C(C)C)NC(=O)[C@H](CCCNC(=N)N)NC(=O)[C@@H](NC(=O)[C@H](CCCNC(=N)N)NC(=O)[C@H](Cc2c[nH]cn2)NC(=O)[C@H](CCCCN)NC(=O)[C@H](CCCCN)NC(=O)[C@H](CCCNC(=N)N)NC(=O)[C@@H](N)CCCCN)CSSC[C@@H](C(=O)O)NC(=O)[C@H](Cc2c[nH]c3ccccc23)NC(=O)[C@H](CCCNC(=N)N)NC(=O)[C@H](Cc2ccc(O)cc2)NC1=O [M14Md] (H-KRKKHRCRVYNNG[dM]PTGMYRWC-OH; disulfide 7-22; N-terminus assumed) | 63 | 63
KRKKHRARVYNNGMPTGMYRWC-OH [C7A] | 16 | 16
CSCC[C@@H]1NC(=O)CNC(=O)[C@H]([C@@H](C)O)NC(=O)[C@@H]2CCCN2C(=O)[C@H](C)NC(=O)CNC(=O)[C@H](CC(N)=O)NC(=O)[C@H](CC(N)=O)NC(=O)[C@H](Cc2ccc(O)cc2)NC(=O)[C@H](C(C)C)NC(=O)[C@H](CCCNC(=N)N)NC(=O)[C@@H](NC(=O)[C@H](CCCNC(=N)N)NC(=O)[C@H](Cc2c[nH]cn2)NC(=O)[C@H](CCCCN)NC(=O)[C@H](CCCCN)NC(=O)[C@H](CCCNC(=N)N)NC(=O)[C@@H](N)CCCCN)CSSC[C@@H](C(=O)O)NC(=O)[C@H](Cc2c[nH]c3ccccc23)NC(=O)[C@H](CCCNC(=N)N)NC(=O)[C@H](Cc2ccc(O)cc2)NC1=O [M14A] (H-KRKKHRCRVYNNGAPTGMYRWC-OH; disulfide 7-22) | 16 | –
KRKKHRCRVYNNGMPTGMYRWA-OH [C22A] | 63 | 63
CSCC[C@@H]1NC(=O)CNC(=O)[C@H]([C@@H](C)O)NC(=O)[C@@H]2CCCN2C(=O)[C@H](CCSC)NC(=O)CNC(=O)[C@H](CC(N)=O)NC(=O)[C@H](CC(N)=O)NC(=O)[C@H](Cc2ccc(O)cc2)NC(=O)[C@H](C(C)C)NC(=O)[C@H](CCCNC(=N)N)NC(=O)[C@@H](NC(=O)[C@H](CCCNC(=N)N)NC(=O)[C@H](Cc2c[nH]cn2)NC(=O)[C@@H](N)CCCCN)CSSC[C@@H](C(=O)O)NC(=O)[C@H](Cc2c[nH]c3ccccc23)NC(=O)[C@H](CCCNC(=N)N)NC(=O)[C@H](Cc2ccc(O)cc2)NC1=O [K4-C22] (H-KHRCRVYNNGMPTGMYRWC-OH; disulfide 4-19; N-terminus assumed) | 4 | –
CSCC[C@@H]1NC(=O)CNC(=O)[C@H]([C@@H](C)O)NC(=O)[C@@H]2CCCN2C(=O)[C@H](CCSC)NC(=O)CNC(=O)[C@H](CC(N)=O)NC(=O)[C@H](CC(N)=O)NC(=O)[C@H](Cc2ccc(O)cc2)NC(=O)[C@H](C(C)C)NC(=O)[C@H](CCCNC(=N)N)NC(=O)[C@@H](NC(=O)[C@H](CCCNC(=N)N)NC(=O)[C@H](Cc2c[nH]cn2)NC(=O)[C@H](CCCCN)NC(=O)[C@H](CCCCN)NC(=O)[C@H](CCCNC(=N)N)NC(=O)[C@@H](N)CCCCN)CSSC[C@@H](C(=O)O)NC(=O)[C@H](Cc2c[nH]c3ccccc23)NC(=O)[C@H](CCCNC(=N)N)NC(=O)[C@H](C)NC1=O [Y19A] (H-KRKKHRCRVYNNGMPTGMARWC-OH; disulfide 7-22) | 1 | –
CSCC[C@@H]1NC(=O)CNC(=O)[C@H]([C@@H](C)O)NC(=O)[C@@H]2CCCN2C(=O)[C@H](CCSC)NC(=O)CNC(=O)[C@H](CC(N)=O)NC(=O)[C@H](CC(N)=O)NC(=O)[C@H](Cc2ccc(O)cc2)NC(=O)[C@H](C(C)C)NC(=O)[C@H](CCCNC(=N)N)NC(=O)[C@@H](NC(=O)[C@H](CCCNC(=N)N)NC(=O)[C@H](Cc2c[nH]cn2)NC(=O)[C@H](CCCCN)NC(=O)[C@H](C)NC(=O)[C@H](CCCNC(=N)N)NC(=O)[C@@H](N)CCCCN)CSSC[C@@H](C(=O)O)NC(=O)[C@H](Cc2c[nH]c3ccccc23)NC(=O)[C@H](CCCNC(=N)N)NC(=O)[C@H](Cc2ccc(O)cc2)NC1=O [K3A] (H-KRAKHRCRVYNNGMPTGMYRWC-OH; disulfide 7-22) | 1 | –
CSCC[C@@H]1NC(=O)CNC(=O)[C@H]([C@@H](C)O)NC(=O)[C@@H]2CCCN2C(=O)[C@H](CCSC)NC(=O)CNC(=O)[C@H](CC(N)=O)NC(=O)[C@H](CC(N)=O)NC(=O)[C@H](Cc2ccc(O)cc2)NC(=O)[C@H](C(C)C)NC(=O)[C@H](CCCNC(=N)N)NC(=O)[C@@H](NC(=O)[C@H](CCCNC(=N)N)NC(=O)[C@H](Cc2c[nH]cn2)NC(=O)[C@H](CCCCN)NC(=O)[C@H](CCCCN)NC(=O)[C@H](CCCNC(=N)N)NC(=O)[C@H](C)N)CSSC[C@@H](C(=O)O)NC(=O)[C@H](Cc2c[nH]c3ccccc23)NC(=O)[C@H](CCCNC(=N)N)NC(=O)[C@H](Cc2ccc(O)cc2)NC1=O [K1A] (H-ARKKHRCRVYNNGMPTGMYRWC-OH; disulfide 7-22) | 1 | –
CSCC[C@@H]1NC(=O)CNC(=O)[C@H]([C@@H](C)O)NC(=O)[C@@H]2CCCN2C(=O)[C@H](CCSC)NC(=O)CNC(=O)[C@H](CC(N)=O)NC(=O)[C@H](CC(N)=O)NC(=O)[C@H](Cc2ccc(O)cc2)NC(=O)[C@H](C(C)C)NC(=O)[C@H](CCCNC(=N)N)NC(=O)[C@@H](NC(=O)[C@H](C)NC(=O)[C@H](Cc2c[nH]cn2)NC(=O)[C@H](CCCCN)NC(=O)[C@H](CCCCN)NC(=O)[C@H](CCCNC(=N)N)NC(=O)[C@@H](N)CCCCN)CSSC[C@@H](C(=O)O)NC(=O)[C@H](Cc2c[nH]c3ccccc23)NC(=O)[C@H](CCCNC(=N)N)NC(=O)[C@H](Cc2ccc(O)cc2)NC1=O [R6A] (H-KRKKHACRVYNNGMPTGMYRWC-OH; disulfide 7-22) | 1 | –
